Here are results for eleven compounds from ChEMBL document CHEMBL1201862, “PubChem BioAssay data set” (2004).

Among the test systems are ACHN; EKVX; HCC 2998; K562; MDA-N; MOLT-4; NCI-H23; PC-3; SF-539; SK-MEL-28; SK-MEL-2; SK-MEL-5; SN12C; SR; U-251; DU-145; KM12; MCF7; MDA-MB-231; NCI-H226.
Experiment in all cases: NCI anticancer screen, dose series, 48 h

Molecules are shown by their SMILES.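 Results reflect a 48-hour exposure of cells in 96-well plates to compound at five concentrations. GI50 = concentration required for 50% inhibition of growth.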 Active and inactive are the calls of the source. No stated cut-off is given here; in the data, active = GI50 up to about 1.1 µM and inactive = higher. Where a SMILES comes first, the peptide text is derived from it. The star is where a group is joined. Cbz = O=C(OCc1ccccc1)*; NHNH2 = NN*

In the case of `CCOC(O)(NC(=O)C(C(F)(F)F)C(F)(F)F)C(F)(F)F` (stereo not drawn), the GI50 in the assay on ACHN, in the assay with EKVX, with HCC 2998, in the assay on K562, in the assay with MDA-N and in the assay on MOLT-4 was > 100 µM (inactive) throughout. Also, the GI50 in the assay on NCI-H23, in the assay on PC-3, in the assay on SF-539, in the assay on SK-MEL-28, with SK-MEL-2 and in the assay on SK-MEL-5 was > 100 µM (inactive) each time. The GI50 with SN12C, in the assay with SR and with U-251 was > 100 µM (inactive) throughout.
For `CC1=NN(c2nc(N)nc(CSCc3nc(N)nc(N(C)C)n3)n2)C(C)(C)C1`, the GI50 in the assay with ACHN was > 100 µM (inactive); in the assay with DU-145, > 100 µM (inactive); in the assay on EKVX, > 100 µM (inactive); in the assay on HCC 2998, > 100 µM (inactive); in the assay on K562, 18.2 µM (inactive); in the assay with KM12, > 100 µM (inactive). Further, the GI50 with MCF7, with MDA-MB-231, with MOLT-4, with NCI-H226, with NCI-H23 and in the assay on PC-3 was > 100 µM (inactive) in each case. The GI50 in the assay with SF-539, in the assay on SK-MEL-28, in the assay with SK-MEL-2, with SK-MEL-5, in the assay on SN12C and with SR was > 100 µM (inactive) each time. Further, the GI50 in the assay on U-251 is > 100 µM (inactive).
Turning to `CCCCNC(=O)Nc1c(C(N)=O)c2n(c1C(=O)OCC)CCCCC2`, the GI50 in the assay with ACHN, with DU-145, in the assay with EKVX, in the assay with HCC 2998, with K562 and in the assay with KM12 was > 100 µM (inactive) each time. The GI50 in the assay with MCF7 was > 100 µM (inactive); with MDA-MB-231, 21.3 µM (inactive); with MOLT-4 it was > 100 µM (inactive); with NCI-H226, 3.89 µM (inactive); with NCI-H23 it was > 100 µM (inactive); with PC-3 it was > 100 µM (inactive). Also, the GI50 in the assay on SF-539 was > 100 µM (inactive); in the assay on SK-MEL-28, > 100 µM (inactive); with SK-MEL-2, > 100 µM (inactive); in the assay on SK-MEL-5 it was > 100 µM (inactive); in the assay with SR, 75.9 µM (inactive); in the assay with U-251, > 100 µM (inactive).
On to `COC(=O)c1c(C)[nH]c2c1cc(O)c1nc(C)c(C)nc12`, for which the GI50 in the assay on ACHN was 35.5 µM (inactive); in the assay on DU-145 it was > 100 µM (inactive); with EKVX it was > 100 µM (inactive); in the assay on HCC 2998, > 100 µM (inactive); with K562 it was > 100 µM (inactive); with KM12 it was > 100 µM (inactive). The GI50 in the assay on MCF7 is 50.9 µM (inactive); with MDA-N, > 100 µM (inactive); in the assay on MOLT-4, > 100 µM (inactive); in the assay on NCI-H226, > 100 µM (inactive); with NCI-H23, 49.4 µM (inactive); with PC-3, 23.2 µM (inactive). Also, the GI50 in the assay with SF-539 is 34.3 µM (inactive); with SK-MEL-28, > 100 µM (inactive); in the assay with SK-MEL-2 it was 33 µM (inactive); in the assay with SK-MEL-5, 48.5 µM (inactive); in the assay on SN12C, > 100 µM (inactive); in the assay on SR it was > 100 µM (inactive). For the same compound, the GI50 with U-251 was 60.3 µM (inactive).
As for `Brc1cccc(C2(CCCC3(c4cccc(Br)n4)OCCO3)OCCO2)n1`, the GI50 in the assay on ACHN, with EKVX, with HCC 2998, with K562, in the assay with KM12 and in the assay on MCF7 was > 100 µM (inactive) in each case. The GI50 in the assay on MDA-MB-231, with MDA-N, in the assay with MOLT-4, in the assay with NCI-H226, with NCI-H23 and in the assay with PC-3 was > 100 µM (inactive) each time. The GI50 in the assay on SF-539 is 39.2 µM (inactive); in the assay with SK-MEL-28, > 100 µM (inactive); in the assay on SK-MEL-2, > 100 µM (inactive); in the assay with SK-MEL-5, > 100 µM (inactive); in the assay on SN12C, > 100 µM (inactive).
Regarding `COc1cc(/C=N/N=C(\N)NO)cc(OC)c1OC`, the GI50 is 21.5 µM (inactive) in the assay on ACHN; 26.3 µM (inactive) in the assay with DU-145; 19.6 µM (inactive) with EKVX; 36.6 µM (inactive) with HCC 2998; 21.6 µM (inactive) in the assay with K562; 18.7 µM (inactive) in the assay with KM12. The GI50 in the assay with MCF7 is 22.6 µM (inactive); with MDA-MB-231 it was > 100 µM (inactive); in the assay on MOLT-4, 40.6 µM (inactive); with NCI-H226 it was 20.5 µM (inactive); in the assay on NCI-H23 it was 38.2 µM (inactive); with PC-3, 44.6 µM (inactive). For the same compound, the GI50 was 30.5 µM (inactive) with SF-539; 57 µM (inactive) in the assay on SK-MEL-28; 54.3 µM (inactive) in the assay with SK-MEL-2; 20.6 µM (inactive) with SK-MEL-5; 33.8 µM (inactive) with SN12C; 24.5 µM (inactive) in the assay on SR. For the same compound, the GI50 with U-251 was 52.2 µM (inactive).
As for `CCOC(=O)CCC(NC(=O)OCc1ccccc1)C(=O)NC(CCC(=O)OCC)C(=O)NN` (stereo not drawn) (Cbz-Glu(OEt)-Glu(OEt)-NHNH2; configuration not given here), the GI50 in the assay on ACHN, in the assay on EKVX, in the assay with HCC 2998, with K562, in the assay on KM12 and with MCF7 was > 100 µM (inactive) in each case. In addition, the GI50 in the assay with MDA-MB-231, in the assay with MDA-N, in the assay on MOLT-4, with NCI-H226, in the assay on PC-3 and in the assay with SK-MEL-28 was > 100 µM (inactive) throughout. In addition, the GI50 in the assay with SK-MEL-2, with SK-MEL-5, with SN12C, in the assay with SR and with U-251 was > 100 µM (inactive) each time.
Consider `CCCCCCCCCCCCCCCC(=O)OCC1OC(OC)C2NP(=O)(N(CCCl)CCCl)OC1C2O` (stereo not drawn), for which the GI50 with ACHN was 0.953 µM (active); in the assay on DU-145, 7.41 µM (inactive); in the assay on EKVX, 22 µM (inactive); with HCC 2998 it was 2.54 µM (inactive); in the assay with K562, 2.36 µM (inactive); with KM12 it was 16.3 µM (inactive). For the same compound, the GI50 in the assay with MCF7 was 0.366 µM (active); in the assay on MOLT-4, 0.0288 µM (active); with NCI-H226, 10.9 µM (inactive); with NCI-H23 it was 1.21 µM (inactive); in the assay on PC-3, 2.5 µM (inactive); with SF-539 it was 0.887 µM (active). Further, the GI50 in the assay on SK-MEL-28 is 22.2 µM (inactive); with SK-MEL-2, 8.3 µM (inactive); with SK-MEL-5 it was 7.53 µM (inactive); in the assay with SN12C it was 1.05 µM (active); in the assay with SR it was 0.0177 µM (active); with U-251, 1.32 µM (inactive).
With `CSc1nc(-c2ccc(C)cc2)c(C#N)c(=O)[nH]1`, the GI50 in the assay with ACHN, with DU-145, in the assay on EKVX, in the assay on HCC 2998, in the assay with K562 and in the assay with KM12 was > 100 µM (inactive) throughout. Moreover, the GI50 with MCF7, with MDA-MB-231, with MOLT-4, in the assay with NCI-H226, with NCI-H23 and with PC-3 was > 100 µM (inactive) each time. The GI50 with SF-539, with SK-MEL-28, in the assay with SK-MEL-2, in the assay on SK-MEL-5, with SN12C and in the assay on U-251 was > 100 µM (inactive) in each case.
For the compound `CC(C)CNC(=O)Cn1c2c(c3ccccc31)CCCC2`, the GI50 in the assay on ACHN is 33 µM (inactive); in the assay with EKVX it was 71 µM (inactive); with HCC 2998, > 100 µM (inactive); in the assay with K562, 76.9 µM (inactive); with MCF7, > 100 µM (inactive); in the assay with MDA-N it was 54 µM (inactive). Further, the GI50 in the assay on MOLT-4 was 0.743 µM (active); in the assay on NCI-H23, > 100 µM (inactive); in the assay with PC-3, 58.5 µM (inactive); with SF-539, > 100 µM (inactive); in the assay on SK-MEL-28, > 100 µM (inactive); in the assay with SK-MEL-2 it was > 100 µM (inactive). For the same compound, the GI50 in the assay with SK-MEL-5 is 64.7 µM (inactive); with SN12C, > 100 µM (inactive); with SR, > 100 µM (inactive).
`COC(=O)C[C@H](COCc1ccccc1)NC(=O)C[C@H](COCc1ccccc1)NC(=O)OC(C)(C)C`: the GI50 is 38.6 µM (inactive) in the assay with ACHN; 22.4 µM (inactive) with DU-145; 18.9 µM (inactive) in the assay with EKVX; 40.2 µM (inactive) in the assay with K562; 45.3 µM (inactive) in the assay on KM12; 19.8 µM (inactive) with MCF7. Also, the GI50 is 36.6 µM (inactive) with MDA-MB-231; 56 µM (inactive) in the assay on MOLT-4; > 100 µM (inactive) in the assay with NCI-H226; 35.3 µM (inactive) in the assay on NCI-H23; 26.9 µM (inactive) with PC-3; 34.7 µM (inactive) in the assay on SF-539. For the same compound, the GI50 is > 100 µM (inactive) with SK-MEL-28; 37.2 µM (inactive) in the assay on SK-MEL-2; 45.8 µM (inactive) in the assay with SK-MEL-5; 26.4 µM (inactive) with SN12C; 39.1 µM (inactive) in the assay with SR; 27.9 µM (inactive) in the assay with U-251.
